Experimental findings from ChEMBL document CHEMBL6120941, “Discovery of SIRT1-Activating Hydrogen Sulfide Donating Derivatives for Efficient Resistant of Myocardial Ischemic Injury” (J Med Chem, 2024) are described below.

The subject of assay [1] is H9c2. The experiment in a line: Cardioprotective activity against CoCl2-induced cellular hypoxia injury in rat H9c2 cells assessed as increase in cell viability at 30 uM incubated for 24 hrs by CCK-8 assay. It is filed as functional, cell-based. For orientation: Formazan colour is commonly taken as a measure of viable cells.
Assay [2] concerns H9c2. The experiment in a line: Cardioprotective activity against CoCl2-induced cellular hypoxia injury in rat H9c2 cells assessed as cell viability at 0.625 uM incubated for 24 hrs by CCK-8 assay (reference value: 51.80 +/- 2.58 %). It is filed as functional. The settings on record: read-out: Activity.
Assay [3] concerns H9c2. As to the kind of experiment: Cardioprotective activity against CoCl2-induced cellular hypoxia injury in rat H9c2 cells assessed as cell viability at 1.25 uM incubated for 24 hrs by CCK-8 assay (reference value: 51.80 +/- 2.58 %). It is filed as functional. The settings on record: read-out: Activity.
Assay [4] relates to H9c2. The experiment in a line: Cardioprotective activity against CoCl2-induced cellular hypoxia injury in rat H9c2 cells assessed as cell viability at 2.5 uM incubated for 24 hrs by CCK-8 assay (reference value: 51.80 +/- 2.58 %). It is filed as functional. The settings on record: read-out: Activity.
Assay [5] deals with H9c2. The experiment in a line: Cardioprotective activity against CoCl2-induced cellular hypoxia injury in rat H9c2 cells assessed as cell viability at 5 uM incubated for 24 hrs by CCK-8 assay (reference value: 51.80 +/- 2.58 %). It is filed as functional. The note with it: read-out: Activity.
In assay [6] the test system is H9c2. As to the kind of experiment: Cardioprotective activity against CoCl2-induced cellular hypoxia injury in rat H9c2 cells assessed as cell viability at 10 uM incubated for 24 hrs by CCK-8 assay (reference value: 51.80 +/- 2.58 %). The note with it: read-out: Activity. It is filed as functional.
Assay [7] is described as follows: Induction of H2S release in PBS at pH 7.4 at 100 uM measured upto 60 mins by methylene blue method. It is filed as functional.
Assay [8] can be described thus: Induction of H2S release in PBS at pH 7.4 measured upto 60 mins by methylene blue method. It is filed as functional.
Assay [9] concerns H9c2. As to the kind of experiment: Induction of H2S release in rat H9c2 cells incubated for 24 hrs by AzMC probe based analysis. It is filed as functional, cell-based. The note with it: dose 1.25-10 µM.

Active and inactive are the calls of the source. The rule behind the calls is not given here.

`CC(C)(O)[C@@H]1CC[C@@](C)([C@H]2CC[C@]3(C)[C@@H]2[C@H](O)C[C@@H]2[C@@]4(C)CC[C@H](OC(=O)CCC(=O)Oc5ccc(-c6nc(=O)ss6)cc5)C(C)(C)[C@@H]4CC[C@]23C)O1`: in the assay on H9c2 [1], the result was inactive. The viability at 0.625 µM with H9c2 [2] was 73.5%. For the same compound, the viability at 1.25 µM in the assay with H9c2 [3] worked out at 81.6%. For the same compound, in the assay on H9c2 [4], the viability at 2.5 µM was found to be 87.7%. In addition, the viability at 5 µM in the assay on H9c2 [5] is 91%. Also, in the assay on H9c2 [6], the viability at 10 µM turned out to be 92.2%. Besides, the outcome in [7] was Active. Also, the figures for the Activity (in assay [8]; in the assay with H9c2 [9]) were 10 µM and “Dose-dependent-effect”, respectively.

As to `C=CCSSCCC(=O)O[C@H]1CC[C@]2(C)[C@H]3C[C@@H](O)[C@@H]4[C@@H]([C@]5(C)CC[C@@H](C(C)(C)O)O5)CC[C@@]4(C)[C@]3(C)C[C@H](O)[C@H]2C1(C)C`, in the assay on H9c2 [1], the result was inactive. For the same compound, the viability at 0.625 µM in the assay with H9c2 [2] was found to be 74.7%. For the same compound, in the assay with H9c2 [3], the viability at 1.25 µM is 74.2%. The viability at 2.5 µM in the assay with H9c2 [4] was 79.1%. For the same compound, in the assay with H9c2 [5], the viability at 5 µM came out at 89.1%. Besides, the viability at 10 µM in the assay on H9c2 [6] is 95.3%. Further, the result in assay [7] was Active. Besides, the Activity in assay [8] is 17.4 µM; with H9c2 [9] it was “Dose-dependent-effect”.

For `CC(C)(O)[C@H]1CC[C@@](C)([C@H]2CC[C@]3(C)[C@@H]2[C@H](O)C[C@@H]2[C@@]4(C)CC[C@H](OC(=O)CCC(=O)Oc5ccc(-c6nc(=O)ss6)cc5)C(C)(C)[C@@H]4CC[C@]23C)O1`, the result in the assay with H9c2 [1] was inactive. In addition, the viability at 0.625 µM in the assay on H9c2 [2] turned out to be 76.4%. Also, the viability at 1.25 µM with H9c2 [3] stood at 82%. Also, the viability at 2.5 µM in the assay on H9c2 [4] was found to be 84.7%. Moreover, the viability at 5 µM in the assay on H9c2 [5] amounted to 86.8%. In addition, the viability at 10 µM with H9c2 [6] amounted to 91.4%. Further, the outcome in [7] was Active. Also, the values for the Activity (in assay [8]; in the assay with H9c2 [9]) were 7 µM and “Dose-dependent-effect”, respectively.

Turning to `CC(C)(O)[C@@H]1CC[C@@](C)([C@H]2CC[C@]3(C)[C@@H]2[C@H](O)C[C@@H]2[C@@]4(C)CC[C@H](OC(=O)CCC(=O)Oc5ccc(-c6nc(=O)ss6)cc5)C(C)(C)[C@@H]4[C@@H](O)C[C@]23C)O1`, in the assay on H9c2 [1], the result was inactive. For the same compound, in the assay on H9c2 [2], the viability at 0.625 µM was 70.1%. Also, the viability at 1.25 µM with H9c2 [3] amounted to 77.4%. For the same compound, in the assay on H9c2 [4], the viability at 2.5 µM was determined as 83.7%. Also, the viability at 5 µM in the assay with H9c2 [5] was 89.1%. Besides, the viability at 10 µM with H9c2 [6] was 94.2%. Moreover, the outcome in assay [7] was Active. The figures for the Activity (in [8]; in the assay on H9c2 [9]) were 10.5 µM and “Dose-dependent-effect”, respectively.

Turning to `CC(C)(O)[C@H]1CC[C@@](C)([C@H]2CC[C@]3(C)[C@@H]2[C@H](O)C[C@@H]2[C@@]4(C)CC[C@H](OC(=O)c5ccc(N=C=S)cc5)C(C)(C)[C@@H]4CC[C@]23C)O1`, the result with H9c2 [1] was inactive. The viability at 0.625 µM in the assay on H9c2 [2] turned out to be 59.9%. In addition, in the assay with H9c2 [3], the viability at 1.25 µM was determined as 61.6%. Also, the viability at 2.5 µM in the assay with H9c2 [4] is 67.3%. Besides, the viability at 5 µM with H9c2 [5] was determined as 68.3%. In addition, the viability at 10 µM in the assay on H9c2 [6] stood at 72.9%.

As to `C=CCSSCCC(=O)O[C@H]1CC[C@]2(C)[C@H]3C[C@@H](O)[C@@H]4[C@@H]([C@@](C)(O)CCC=C(C)C)CC[C@@]4(C)[C@]3(C)CC[C@H]2C1(C)C`, the outcome in the assay on H9c2 [1] was inactive. Also, the viability at 0.625 µM in the assay on H9c2 [2] is 46%. Further, the viability at 1.25 µM with H9c2 [3] was 50.8%. In the assay with H9c2 [4], the viability at 2.5 µM came to 42.5%. Moreover, the viability at 5 µM in the assay with H9c2 [5] was found to be 60.6%. Also, the viability at 10 µM with H9c2 [6] is 62.7%.

Turning to `CC(C)(O)[C@H]1CC[C@@](C)([C@H]2CC[C@]3(C)[C@@H]2[C@H](O)C[C@@H]2[C@@]4(C)CC[C@H](OC(=O)CCC(=O)Oc5ccc(-c6nc(=O)ss6)cc5)C(C)(C)[C@@H]4[C@@H](O)C[C@]23C)O1`, the outcome in the assay with H9c2 [1] was inactive. Also, in the assay with H9c2 [2], the viability at 0.625 µM was 65.7%. Further, the viability at 1.25 µM with H9c2 [3] worked out at 72.5%. The viability at 2.5 µM with H9c2 [4] was determined as 76%. In addition, the viability at 5 µM in the assay with H9c2 [5] turned out to be 77.3%. Further, the viability at 10 µM with H9c2 [6] is 81.5%.

In the case of `O=C(O)CCC(=O)Oc1ccc(-c2nc(=O)ss2)cc1`, the result in the assay with H9c2 [1] was inactive. For the same compound, the viability at 0.625 µM in the assay with H9c2 [2] worked out at 52.4%. Also, the viability at 1.25 µM in the assay with H9c2 [3] came out at 55.1%. Besides, the viability at 2.5 µM in the assay with H9c2 [4] worked out at 55.9%. Also, in the assay on H9c2 [5], the viability at 5 µM was 57%. Besides, the viability at 10 µM with H9c2 [6] stood at 57.2%.

As to `CC(C)(O)[C@@H]1CC[C@@](C)([C@H]2CC[C@]3(C)[C@@H]2[C@H](O)C[C@@H]2[C@@]4(C)CC[C@H](OC(=O)c5ccc(N=C=S)cc5)C(C)(C)[C@@H]4[C@@H](O)C[C@]23C)O1`, the outcome in the assay with H9c2 [1] was inactive. In addition, the viability at 0.625 µM in the assay with H9c2 [2] was found to be 56.9%. In the assay with H9c2 [3], the viability at 1.25 µM came out at 55.5%. The viability at 2.5 µM with H9c2 [4] was determined as 58.8%. Besides, the viability at 5 µM with H9c2 [5] amounted to 61.4%. Besides, the viability at 10 µM with H9c2 [6] is 63.1%.

On to `CC(C)(O)[C@@H]1CC[C@@](C)([C@H]2CC[C@]3(C)[C@@H]2[C@H](O)C[C@@H]2[C@@]4(C)CC[C@H](OC(=O)CCC(=O)Oc5ccc(-c6cc(=S)ss6)cc5)C(C)(C)[C@@H]4[C@@H](O)C[C@]23C)O1`, for which, in the assay with H9c2 [1], the result was inactive. The viability at 0.625 µM in the assay on H9c2 [2] worked out at 68.4%. For the same compound, the viability at 1.25 µM in the assay on H9c2 [3] amounted to 73.6%. The viability at 2.5 µM with H9c2 [4] worked out at 76.9%. Besides, the viability at 5 µM in the assay with H9c2 [5] was found to be 77.2%. In addition, in the assay with H9c2 [6], the viability at 10 µM was found to be 75.2%.

On to `C=CCSSCCC(=O)O[C@H]1CC[C@]2(C)[C@H]3C[C@@H](O)[C@@H]4[C@@H]([C@]5(C)CC[C@H](C(C)(C)O)O5)CC[C@@]4(C)[C@]3(C)CC[C@H]2C1(C)C`, for which, in the assay on H9c2 [1], the outcome was inactive. For the same compound, the viability at 0.625 µM with H9c2 [2] amounted to 65.7%. In the assay with H9c2 [3], the viability at 1.25 µM was found to be 72.3%. Also, the viability at 2.5 µM in the assay with H9c2 [4] stood at 73.6%. The viability at 5 µM with H9c2 [5] came to 76.9%. Moreover, in the assay on H9c2 [6], the viability at 10 µM came to 74.2%.

With `CC(C)=CCC[C@](C)(O)[C@H]1CC[C@]2(C)[C@@H]1[C@H](O)C[C@@H]1[C@@]3(C)CC[C@H](OC(=O)c4ccc(N=C=S)cc4)C(C)(C)[C@@H]3CC[C@]12C`, the result in the assay with H9c2 [1] was inactive. Besides, in the assay on H9c2 [2], the viability at 0.625 µM worked out at 54.7%. Also, the viability at 1.25 µM in the assay with H9c2 [3] stood at 61%. The viability at 2.5 µM with H9c2 [4] turned out to be 60.7%. Besides, the viability at 5 µM in the assay with H9c2 [5] came out at 67.5%. The viability at 10 µM in the assay with H9c2 [6] amounted to 61.5%.

Turning to `C=CCSSCCC(=O)O`, the result in the assay with H9c2 [1] was inactive. In addition, the viability at 0.625 µM with H9c2 [2] was 51.7%. Moreover, the viability at 1.25 µM with H9c2 [3] came out at 57.5%. In addition, in the assay on H9c2 [4], the viability at 2.5 µM turned out to be 68.4%. Besides, the viability at 5 µM with H9c2 [5] was found to be 71%. In the assay on H9c2 [6], the viability at 10 µM was found to be 80.3%.
